Where “and” joins values, the source holds several entries; their conditions need not be identical. Identical values can stand only once.
Molecular target: T1, Follicle Stimulating Hormone Receptor (FSHR) (Homo sapiens, UniProt P23945)
T1 construct: HA (N); expressed in transfected cells; host or cells: CHO-K1, transient transfection, pHM6 vector (CMV promoter)
T1 sequence (P23945 18-695): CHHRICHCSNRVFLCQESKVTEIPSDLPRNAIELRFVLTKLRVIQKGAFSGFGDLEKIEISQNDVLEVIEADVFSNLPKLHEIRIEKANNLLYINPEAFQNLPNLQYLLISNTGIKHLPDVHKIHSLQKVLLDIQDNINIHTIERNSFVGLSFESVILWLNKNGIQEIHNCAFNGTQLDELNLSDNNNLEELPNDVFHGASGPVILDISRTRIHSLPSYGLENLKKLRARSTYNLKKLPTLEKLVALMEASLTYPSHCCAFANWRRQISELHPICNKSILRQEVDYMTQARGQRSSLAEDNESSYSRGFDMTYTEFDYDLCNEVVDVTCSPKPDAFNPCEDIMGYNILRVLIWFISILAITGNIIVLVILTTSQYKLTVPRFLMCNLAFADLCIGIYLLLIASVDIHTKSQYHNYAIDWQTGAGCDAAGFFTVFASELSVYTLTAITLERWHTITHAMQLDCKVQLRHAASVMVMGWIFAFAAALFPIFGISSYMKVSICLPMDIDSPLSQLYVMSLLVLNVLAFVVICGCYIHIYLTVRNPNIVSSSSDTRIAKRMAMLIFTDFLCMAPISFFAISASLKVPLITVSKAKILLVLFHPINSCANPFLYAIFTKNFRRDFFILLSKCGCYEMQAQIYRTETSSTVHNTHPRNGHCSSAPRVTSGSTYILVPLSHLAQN
Experiment: HTRF cAMP agonist assay, FSHR, transiently transfected CHO-K1 cells
Assay type: cell-based
Details: CHO-K1 cells transiently expressing human FSHR, read-out: IC50 FSHR LANCE CAMP

SMILES | IC50
COc1cc2c(cc1-c1cncc(C(N)=O)c1)-c1c(c(C(=O)N3C[C@@H]4C[C@H]3CO4)nn1-c1cc(Cl)cc(Cl)c1)CC2 [Compound 8-29] | 27.3 nM
COc1cc2c(cc1-c1cncc(C(N)=O)c1)-c1c(c(C(=O)N3COCC3(C)C)nn1-c1cc(Cl)cc(Cl)c1)CC2 [Compound 8-32] | 0.825 nM
COc1cc2c(cc1-c1cncc(C(N)=O)c1)-c1c(c(C(=O)N3CC4CC3CN4)nn1-c1cc(Cl)cc(Cl)c1)CC2 (stereo not shown) [Compound 8-33] | 441 nM
CCN(CC)C(=O)c1nn(-c2cc(Cl)cc(Cl)c2)c2c1CCc1cc(OC)c(-c3cncc(C(N)=O)c3)cc1-2 [Compound 8-35] | 3.99 nM
COc1cc2c(cc1-c1cncc(C(N)=O)c1)-c1c(c(C(=O)N3CCCC3)nn1-c1cc(Cl)cc(Cl)c1)CC2 [Compound 8-37] | 48.4 nM
CC[C@H]1COCCN1C(=O)c1nn(-c2cc(Cl)cc(Cl)c2)c2c1CCc1cc(OC)c(-c3cncc(C(N)=O)c3)cc1-2 [Compound 8-44] | 2.04 nM
COc1cc2c(cc1-c1cncc(C(N)=O)c1)-c1c(c(C(=O)N3CCC[C@H]3C)nn1-c1cc(Cl)cc(Cl)c1)CC2 [Compound 8-45] | 17.4 nM
COc1cc2c(cc1-c1cncc(C(N)=O)c1)-c1c(c(C(=O)N(C)C3CCS(=O)(=O)C3)nn1-c1cc(Cl)cc(Cl)c1)CC2 (stereo not shown) [Compound 8-46] | 177 nM
COc1cc2c(cc1-c1cncc(C(N)=O)c1)-c1c(c(C(=O)N(C)C3CCCC3)nn1-c1cc(Cl)cc(Cl)c1)CC2 [Compound 8-47] | 29.3 nM
COc1cc2c(cc1-c1cncc(C(N)=O)c1)-c1c(c(C(=O)N3[C@H](C)COC[C@@H]3C)nn1-c1cc(Cl)cc(Cl)c1)CC2 [Compound 8-49] | 2.4 nM
COc1cc2c(cc1-c1cncc(C(N)=O)c1)-c1c(c(C(=O)NC(C)(C)CO)nn1-c1cc(Cl)cc(Cl)c1)CC2 [Compound 8-52A] | 39.3 nM
COc1cc2c(cc1-c1cncc(C(N)=O)c1)-c1c(c(C(=O)NC(C)CO)nn1-c1cc(Cl)cc(Cl)c1)CC2 (stereo not shown) [Compound 8-54A] | 222 nM
COc1cc2c(cc1-c1cncc(C(N)=O)c1)-c1c(c(C(=O)N(CC(F)(F)F)CC(F)(F)F)nn1-c1cc(Cl)cc(Cl)c1)CC2 [Compound 8-56] | 61.3 nM
COc1cc2c(cc1-c1cncc(C(N)=O)c1)-c1c(c(C(=O)N3CCNC[C@H]3C(F)(F)F)nn1-c1cc(Cl)cc(Cl)c1)CC2 [Compound 8-57, 5-[1-(3,5-dichlorophenyl)-7-methoxy-3-[(2S)-2-(trifluoromethyl)piperazine-1-carbonyl]-4,5-dihydrobenzo[g]indazol-8-yl]pyridine-3-carboxamide] | 3.89 nM
COc1cc2c(cc1-c1cncc(C(N)=O)c1)-c1c(c(C(=O)N3CCN(CC(F)(F)F)CC3(C)C)nn1-c1cc(Cl)cc(Cl)c1)CC2 [Compound 8-58, 5-(1-(3,5-dichlorophenyl)-3-(2,2-dimethyl-4-(2,2,2-trifluoroethyl)piperazine-1-carbonyl)-7-methoxy-4,5-dihydro-1H-benzo[g]indazol-8-yl)nicotinamide] | 102 nM
CCN1CCN(C(=O)c2nn(-c3cc(Cl)cc(Cl)c3)c3c2CCc2cc(OC)c(-c4cncc(C(N)=O)c4)cc2-3)C(C)(C)C1 [Compound 8-60] | 38.9 nM
COc1cc2c(cc1-c1cncc(C(N)=O)c1)-c1c(c(C(=O)N3CCN(C4CC4)CC3(C)C)nn1-c1cc(Cl)cc(Cl)c1)CC2 [Compound 8-62] | 122 nM
CCCN1CCN(C(=O)c2nn(-c3cc(Cl)cc(Cl)c3)c3c2CCc2cc(OC)c(-c4cncc(C(N)=O)c4)cc2-3)C(C)(C)C1 [Compound 8-63] | 120 nM
COc1cc2c(cc1-c1cncc(C(N)=O)c1)-c1c(c(C(=O)N3CCN(CC(=O)O)CC3(C)C)nn1-c1cc(Cl)cc(Cl)c1)CC2 [Compound 8-64] | 3400 nM
COc1cc2c(cc1-c1cncc(C(N)=O)c1)-c1c(c(C(=O)N3CCN(CCC(=O)O)CC3(C)C)nn1-c1cc(Cl)cc(Cl)c1)CC2 [Compound 8-65] | 1320 nM
COc1cc2c(cc1-c1cncc(C(N)=O)c1)-c1c(c(C(=O)N3CCCC(=O)C3(C)C)nn1-c1cc(Cl)cc(Cl)c1)CC2 [Compound 8-67, 5-(1-(3,5-dichlorophenyl)-3-(2,2-dimethyl-3-oxopiperidine-1-carbonyl)-7-methoxy-4,5-dihydro-1H-benzo[g]indazol-8-yl)nicotinamide] | 4.24 nM
COc1cc2c(cc1-c1cncc(C(N)=O)c1)-c1c(c(C(=O)N3CCN(CCN)C(=O)C3(C)C)nn1-c1cc(Cl)cc(Cl)c1)CC2 [Compound 8-71] | 3730 nM
COc1cc2c(cc1-c1cncc(C(N)=O)c1)-c1c(c(C(=O)N3CC4CC(C3)N4)nn1-c1cc(Cl)cc(Cl)c1)CC2 [Compound 8-74, 5-(3-(3,6-diazabicyclo[3.1.1]heptane-3-carbonyl)-1-(3,5-dichlorophenyl)-7-methoxy-4,5-dihydro-1H-benzo[g]indazol-8-yl)nicotinamide] | 453 nM
CC1(C)C(=O)NCCN1C(=O)c1nn(-c2ccccn2)c2c1CCc1ccc(-c3cncc(C(N)=O)c3)cc1-2 [Compound 8-75] | 27400 nM
CCC1C(=O)NCCN1C(=O)c1nn(-c2ccccn2)c2c1CCc1ccc(-c3cccnc3)cc1-2 (stereo not shown) [Compound 8-78] | 2430 nM

Other lines, results leading:

IC50 | SMILES
2180 nM | COc1cc2c(cc1-c1cncc(C(N)=O)c1)-c1c(c(C(=O)N(C)C3CCN(C)C3)nn1-c1cc(Cl)cc(Cl)c1)CC2 (stereo not shown) [Compound 8-28]
1720 nM | COc1cc2c(cc1-c1cncc(C(N)=O)c1)-c1c(c(C(=O)N3CC[C@H]4CN(C)C[C@H]43)nn1-c1cc(Cl)cc(Cl)c1)CC2 [Compound 8-30]
145 nM | COc1cc2c(cc1-c1cncc(C(N)=O)c1)-c1c(c(C(=O)N3CCC4C3CCN4C(=O)OC(C)(C)C)nn1-c1cc(Cl)cc(Cl)c1)CC2 (stereo not shown) [Compound 8-31A]
1760 nM | COc1cc2c(cc1-c1cncc(C(N)=O)c1)-c1c(c(C(=O)N3CCC4C3CCN4C)nn1-c1cc(Cl)cc(Cl)c1)CC2 (stereo not shown) [Compound 8-31]
105 nM | COc1cc2c(cc1-c1cncc(C(N)=O)c1)-c1c(c(C(=O)N3CC4CC3CN4C(=O)OC(C)(C)C)nn1-c1cc(Cl)cc(Cl)c1)CC2 (stereo not shown) [Compound 8-33A]
13.4 nM | CCN(C)C(=O)c1nn(-c2cc(Cl)cc(Cl)c2)c2c1CCc1cc(OC)c(-c3cncc(C(N)=O)c3)cc1-2 [Compound 8-34]
4.17 nM | COc1cc2c(cc1-c1cncc(C(N)=O)c1)-c1c(c(C(=O)N(C)C(C)C)nn1-c1cc(Cl)cc(Cl)c1)CC2 [Compound 8-36]
9.16 nM | COc1cc2c(cc1-c1cncc(C(N)=O)c1)-c1c(c(C(=O)N3CCCC3C)nn1-c1cc(Cl)cc(Cl)c1)CC2 (stereo not shown) [Compound 8-38]
15.5 nM | COc1cc2c(cc1-c1cncc(C(N)=O)c1)-c1c(c(C(=O)N(C)C3CC3)nn1-c1cc(Cl)cc(Cl)c1)CC2 [Compound 8-39]
1.8 nM and 2.46 nM | CCN(C(=O)c1nn(-c2cc(Cl)cc(Cl)c2)c2c1CCc1cc(OC)c(-c3cncc(C(N)=O)c3)cc1-2)C(C)(C)C [Compound 8-41]
6.76 nM | COc1cc2c(cc1-c1cncc(C(N)=O)c1)-c1c(c(C(=O)N(C)C(C)C3CC3)nn1-c1cc(Cl)cc(Cl)c1)CC2 (stereo not shown) [Compound 8-42]
2.59 nM | COc1cc2c(cc1-c1cncc(C(N)=O)c1)-c1c(c(C(=O)N3CCOC[C@@H]3C)nn1-c1cc(Cl)cc(Cl)c1)CC2 [Compound 8-43]
3.43 nM | COc1cc2c(cc1-c1cncc(C(N)=O)c1)-c1c(c(C(=O)N3[C@@H](C)COC[C@@H]3C)nn1-c1cc(Cl)cc(Cl)c1)CC2 [Compound 8-50]
3.06 nM | COc1cc2c(cc1-c1cncc(C(N)=O)c1)-c1c(c(C(=O)N3CCOC3(C)C)nn1-c1cc(Cl)cc(Cl)c1)CC2 [Compound 8-51, 5-(1-(3,5-dichlorophenyl)-3-(2,2-dimethyloxazolidine-3-carbonyl)-7-methoxy-4,5-dihydro-1H-benzo[g]indazol-8-yl)nicotinamide]
6.56 nM | COc1cc2c(cc1-c1cncc(C(N)=O)c1)-c1c(c(C(=O)N(C)CC(F)(F)F)nn1-c1cc(Cl)cc(Cl)c1)CC2 [Compound 8-55]
192 nM | COc1cc2c(cc1-c1cncc(C(N)=O)c1)-c1c(c(C(=O)N3CCN(C(C)C)CC3(C)C)nn1-c1cc(Cl)cc(Cl)c1)CC2 [Compound 8-61, 5-(1-(3,5-dichlorophenyl)-3-(4-isopropyl-2,2-dimethylpiperazine-1-carbonyl)-7-methoxy-4,5-dihydro-1H-benzo[g]indazol-8-yl)nicotinamide]
2790 nM | COc1cc2c(cc1-c1cncc(C(N)=O)c1)-c1c(c(C(=O)N3CCN(CCN)CC3(C)C)nn1-c1cc(Cl)cc(Cl)c1)CC2 [Compound 8-66]
82.2 nM | COc1cc2c(cc1-c1cncc(C(N)=O)c1)-c1c(c(C(=O)N3CCN(C)C(=O)C3(C)C)nn1-c1cc(Cl)cc(Cl)c1)CC2 [Compound 8-69]
140 nM | COc1cc2c(cc1-c1cncc(C(N)=O)c1)-c1c(c(C(=O)N3CCN(CCO)C(=O)C3(C)C)nn1-c1cc(Cl)cc(Cl)c1)CC2 [Compound 8-70]
8.99 nM | COc1cc2c(cc1-c1cncc(C(N)=O)c1)-c1c(c(C(=O)N3CNC(=O)C3(C)C)nn1-c1cc(Cl)cc(Cl)c1)CC2 [Compound 8-72]
6090 nM | C[C@H]1CNC(=O)[C@H](C)N1C(=O)c1nn(-c2ccccn2)c2c1CCc1ccc(-c3cccnc3)cc1-2 [Compound 8-79]

Source: patent US20260008783A1, “MODULATORS OF FSHR AND USES THEREOF” (Celmatix Inc., priority 2022, published 2026)
